Test results reported in PubChem BioAssay AID1259407 (Chemical Carcinogenesis Research Information System (CCRIS), 2018).
Calls of active or inactive are those of the source. How the calls were made is not given here.

Tested on: CCRIS mutagenicity, Ames/micronucleus/aberration tests
Assay: CCRIS mutagenicity studies
[1] = Test System: AMES SALMONELLA TYPHIMURIUM, Strain/Indicator: TA98, Metabolic Activation: NONE, Method: PREINCUBATION
[2] = Test System: AMES SALMONELLA TYPHIMURIUM, Strain/Indicator: TA97, Metabolic Activation: NONE, Method: PREINCUBATION
[3] = Test System: AMES SALMONELLA TYPHIMURIUM, Strain/Indicator: TA100, Metabolic Activation: HAMSTER, LIVER, S-9, AROCLOR 1254 (10%), Method: PREINCUBATION
[4] = Test System: AMES SALMONELLA TYPHIMURIUM, Strain/Indicator: TA100, Metabolic Activation: NONE, Method: PREINCUBATION
[5] = Test System: AMES SALMONELLA TYPHIMURIUM, Strain/Indicator: TA1535, Metabolic Activation: NONE, Method: PREINCUBATION

## C=CCC1=C(C)C(OC(=O)[C@@H]2[C@@H](C=C(C)C)C2(C)C)CC1=O (stereo not given in full)
Test System: AMES SALMONELLA TYPHIMURIUM, Strain/Indicator: TA97, Metabolic Activation: NONE, Method: STANDARD PLATE
  mutagenic call: active; positive
Test System: AMES SALMONELLA TYPHIMURIUM, Strain/Indicator: TA97, Metabolic Activation: RAT, LIVER, S-9, PHENOBARBITONE, Method: STANDARD PLATE
  mutagenic call: active; positive
Test System: AMES SALMONELLA TYPHIMURIUM, Strain/Indicator: TA98
  mutagenic call: active; positive
Test System: AMES SALMONELLA TYPHIMURIUM, Strain/Indicator: TA98, Metabolic Activation: NONE
  mutagenic call: inactive; negative
Test System: AMES SALMONELLA TYPHIMURIUM, Strain/Indicator: TA98, Metabolic Activation: NONE, Method: MICROSUSPENSION
  mutagenic call: inactive; negative
Test System: AMES SALMONELLA TYPHIMURIUM, Strain/Indicator: TA98, Metabolic Activation: NONE, Method: STANDARD PLATE
  mutagenic call: inactive; negative
Test System: AMES SALMONELLA TYPHIMURIUM, Strain/Indicator: TA98, Metabolic Activation: RAT, LIVER, S-9, AROCLOR 1254, Method: STANDARD PLATE
  mutagenic call: inactive; negative
Test System: AMES SALMONELLA TYPHIMURIUM, Strain/Indicator: TA98, Metabolic Activation: RAT, LIVER, S-9, PHENOBARBITONE, Method: STANDARD PLATE
  mutagenic call: inactive; negative
Test System: AMES SALMONELLA TYPHIMURIUM, Strain/Indicator: TA98, Metabolic Activation: S-9, Method: MICROSUSPENSION
  mutagenic call: inactive; negative
Test System: AMES SALMONELLA TYPHIMURIUM, Strain/Indicator: TA100
  mutagenic call: active; positive
Test System: AMES SALMONELLA TYPHIMURIUM, Strain/Indicator: TA100, Metabolic Activation: NONE
  mutagenic call: active; positive
Test System: AMES SALMONELLA TYPHIMURIUM, Strain/Indicator: TA100, Metabolic Activation: NONE, Method: MICROSUSPENSION
  mutagenic call: inactive; negative
Test System: AMES SALMONELLA TYPHIMURIUM, Strain/Indicator: TA100, Metabolic Activation: RAT, LIVER, S-9, AROCLOR 1254, Method: STANDARD PLATE
  mutagenic call: active; positive
Test System: AMES SALMONELLA TYPHIMURIUM, Strain/Indicator: TA100, Metabolic Activation: RAT, LIVER, S-9, PHENOBARBITONE, Method: STANDARD PLATE
  mutagenic call: active; positive
Test System: AMES SALMONELLA TYPHIMURIUM, Strain/Indicator: TA100, Metabolic Activation: S-9, Method: MICROSUSPENSION
  mutagenic call: inactive; negative
Test System: AMES SALMONELLA TYPHIMURIUM, Strain/Indicator: TA100, Metabolic Activation: S-9 MIX, Method: STANDARD PLATE
  mutagenic call: active; positive
Test System: AMES SALMONELLA TYPHIMURIUM, Strain/Indicator: TA104, Metabolic Activation: NONE, Method: STANDARD PLATE
  mutagenic call: inactive; negative
Test System: AMES SALMONELLA TYPHIMURIUM, Strain/Indicator: TA104, Metabolic Activation: RAT, LIVER, S-9, PHENOBARBITONE, Method: STANDARD PLATE
  mutagenic call: active; positive
Test System: AMES SALMONELLA TYPHIMURIUM, Strain/Indicator: TA1535, Metabolic Activation: NONE, Method: STANDARD PLATE
  mutagenic call: inactive; negative
Test System: AMES SALMONELLA TYPHIMURIUM, Strain/Indicator: TA1535, Metabolic Activation: RAT, LIVER, S-9, AROCLOR 1254, Method: STANDARD PLATE
  mutagenic call: inactive; negative
Test System: AMES SALMONELLA TYPHIMURIUM, Strain/Indicator: TA1537, Metabolic Activation: NONE, Method: STANDARD PLATE
  mutagenic call: inactive; negative
Test System: AMES SALMONELLA TYPHIMURIUM, Strain/Indicator: TA1537, Metabolic Activation: RAT, LIVER, S-9, AROCLOR 1254, Method: STANDARD PLATE
  mutagenic call: inactive; negative
Test System: E. COLI, Strain/Indicator: WP2, Metabolic Activation: NONE, Method: STANDARD PLATE
  mutagenic call: inactive; negative
Test System: E. COLI, Strain/Indicator: WP2, Metabolic Activation: RAT, LIVER, S-9, AROCLOR 1254, Method: STANDARD PLATE
  mutagenic call: inactive; negative

## COC(=O)C(=Cc1ccc([N+](=O)[O-])o1)[N+](=O)[O-]
[1]
  mutagenic call: active; positive

## OCCCCO
Test System: AMES SALMONELLA TYPHIMURIUM, Strain/Indicator: TA97, Metabolic Activation: HAMSTER, LIVER, S-9, AROCLOR 1254 (10 OR 30%), Method: PREINCUBATION
  mutagenic call: inactive; negative
[2]
  mutagenic call: inactive; negative
Test System: AMES SALMONELLA TYPHIMURIUM, Strain/Indicator: TA97, Metabolic Activation: RAT, LIVER, S-9, AROCLOR 1254 (10 OR 30%), Method: PREINCUBATION
  mutagenic call: inactive; negative
Test System: AMES SALMONELLA TYPHIMURIUM, Strain/Indicator: TA98, Metabolic Activation: HAMSTER, LIVER, S-9, AROCLOR 1254 (10 OR 30%), Method: PREINCUBATION
  mutagenic call: inactive; negative
[1]
  mutagenic call: inactive; negative
Test System: AMES SALMONELLA TYPHIMURIUM, Strain/Indicator: TA98, Metabolic Activation: RAT, LIVER, S-9, AROCLOR 1254 (10 OR 30%), Method: PREINCUBATION
  mutagenic call: inactive; negative
[3]
  mutagenic call: inactive; negative
Test System: AMES SALMONELLA TYPHIMURIUM, Strain/Indicator: TA100, Metabolic Activation: HAMSTER, LIVER, S-9, AROCLOR 1254 (30%), Method: PREINCUBATION
  mutagenic call: inactive; negative
[4]
  mutagenic call: inactive; negative
Test System: AMES SALMONELLA TYPHIMURIUM, Strain/Indicator: TA100, Metabolic Activation: RAT, LIVER, S-9, AROCLOR 1254 (10 OR 30%), Method: PREINCUBATION
  mutagenic call: inactive; negative
Test System: AMES SALMONELLA TYPHIMURIUM, Strain/Indicator: TA1535, Metabolic Activation: HAMSTER, LIVER, S-9, AROCLOR 1254 (10 OR 30%), Method: PREINCUBATION
  mutagenic call: inactive; negative
[5]
  mutagenic call: inactive; negative
Test System: AMES SALMONELLA TYPHIMURIUM, Strain/Indicator: TA1535, Metabolic Activation: RAT, LIVER, S-9, AROCLOR 1254 (10 OR 30%), Method: PREINCUBATION
  mutagenic call: inactive; negative

## CCCCCCCCCCCCOS(=O)(=O)O
Test System: AMES SALMONELLA TYPHIMURIUM, Strain/Indicator: TA98, Metabolic Activation: HAMSTER, LIVER, S-9, AROCLOR 1254 (10%), Method: PREINCUBATION
  mutagenic call: inactive; negative
[1]
  mutagenic call: inactive; negative
Test System: AMES SALMONELLA TYPHIMURIUM, Strain/Indicator: TA98, Metabolic Activation: RAT, LIVER, S-9, AROCLOR 1254 (10%), Method: PREINCUBATION
  mutagenic call: inactive; negative
[3]
  mutagenic call: inactive; negative
[4]
  mutagenic call: inactive; negative
Test System: AMES SALMONELLA TYPHIMURIUM, Strain/Indicator: TA100, Metabolic Activation: RAT, LIVER, S-9, AROCLOR 1254 (10%), Method: PREINCUBATION
  mutagenic call: inactive; negative
Test System: AMES SALMONELLA TYPHIMURIUM, Strain/Indicator: TA1535, Metabolic Activation: HAMSTER, LIVER, S-9, AROCLOR 1254 (10%), Method: PREINCUBATION
  mutagenic call: inactive; negative
[5]
  mutagenic call: inactive; negative
Test System: AMES SALMONELLA TYPHIMURIUM, Strain/Indicator: TA1535, Metabolic Activation: RAT, LIVER, S-9, AROCLOR 1254 (10%), Method: PREINCUBATION
  mutagenic call: inactive; negative
Test System: AMES SALMONELLA TYPHIMURIUM, Strain/Indicator: TA1537, Metabolic Activation: HAMSTER, LIVER, S-9, AROCLOR 1254 (10%), Method: PREINCUBATION
  mutagenic call: inactive; negative
Test System: AMES SALMONELLA TYPHIMURIUM, Strain/Indicator: TA1537, Metabolic Activation: NONE, Method: PREINCUBATION
  mutagenic call: inactive; negative
Test System: AMES SALMONELLA TYPHIMURIUM, Strain/Indicator: TA1537, Metabolic Activation: RAT, LIVER, S-9, AROCLOR 1254 (10%), Method: PREINCUBATION
  mutagenic call: inactive; negative

## Oc1ccc2ccc3c4ccc5ccccc5c4c4c(c3c2c1O)O4
[2]
  mutagenic call: active; positive
[1]
  mutagenic call: active; positive
[4]
  mutagenic call: active; positive
Test System: AMES SALMONELLA TYPHIMURIUM, Strain/Indicator: TA104, Metabolic Activation: NONE, Method: PREINCUBATION
  mutagenic call: active; positive
Test System: CHINESE HAMSTER V-79, Strain/Indicator: V-79/6-THIOGUANINE, Metabolic Activation: NONE
  mutagenic call: active; positive
